# According to patent publication US20180104223A1, “TREATMENT OF PAIN” (PROXIMAGEN LIMITED, priority 2015, published 2018):
# Key:
# [1] = system: CFA (Complete Freunds Adjuvant) Induced Hypersensitivity in Rat; experiment: CFA induced hypersensitivity in rat, weight bearing (incapacitance tester); type: in vivo, rat (male Sprague Dawley)
# Method: (3S)-Tetrahydrofuran-3-yl (4S)-4-isopropyl-1,4,6,7-tetrahydro-5H-imidazo[4,5-c]-pyridine-5-carboxylate was investigated (FIG. 1) in the CFA thermal hyperalgesia model, which is an established model for inflammatory pain. […] In more detail:
# (§1) Assessment of the anti-hyperalgesic properties of (3S)-tetrahydrofuran-3-yl (4S)-4-isopropyl-1,4,6,7-tetrahydro-5H-imidazo[4,5-c]pyridine-5-carboxylate mesylate salt was determined through measurement of weight bearing following CFA induced hypersensitivity. Naive rats distribute their body weight equally between the two hind paws. However, when the injected (left) hind paw is painful, the weight is re-distributed so that less weight is put on the affected paw (decrease in weight bearing on injured paw). Weight bearing through each hind limb was measured using a rat incapacitance tester (Linton Instruments, UK). Rats were placed in the incapacitance tester with the hind paws on separate sensors and the average force exerted by both hind limbs was recorded over 4 seconds. The injection of CFA also induces an oedema that can be assessed by paw volume; this is measured using a plethysmometer. The rat's hind paw is placed into the cylinder containing a solution and the volume of displaced liquid determines the paw volume.
# Naive male, Sprague Dawley rats were acclimatised with food and water available ad libitum. Habituation to the incapacitance tester was performed. Baseline weight bearing and paw volume recordings were taken prior to induction of insult. Inflammatory hypersensitivity was induced by intraplantar injection of CFA (100 ul of 1 mg/ml solution) into the left hind paw. A pre-treatment weight bearing and paw volume measurement was taken to assess hypersensitivity 23 hours post-CFA. Animals were then ranked and randomised according to CFA window in a Latin square design. (3S)-Tetrahydrofuran-3-yl (4S)-4-isopropyl-1,4,6,7-tetrahydro-5H-imidazo[4,5-c]pyridine-5-carboxylate mesylate salt was then given at 150, 250 and 500 mg/kg p.o. (dosed in water at 2 mL/Kg, pH ˜5-6), alongside vehicle and reference group (indomethacin), n=9-10 per group. Weight bearing was assessed in all groups 1, 2 and 4 hours post compound administration. Paw volume was assessed 4 hours post compound administration. Data was analysed by comparing treatment groups to control group at each time point.
# Weight bearing (g) readings were taken for both right and left hind paws and the difference calculated. Data is expressed as % reversal of the hypersensitivity to pain, (post dose reading−pre dose reading)/(naïve reading−pre dose reading)×100, where naive weight bearing difference−pre dose weight bearing difference is defined as the CFA window to be reversed. Statistical analysis was conducted by means of repeated measures ANOVA followed by Planned comparison test using InVivoStat (invivostat.co.uk), (p<0.05 considered significant).
# [2] = system: CFA induced oedema, hind paw; experiment: CFA induced oedema in rat, paw volume (plethysmometer); type: in vivo, rat (male Sprague Dawley); settings: 150, 250 and 500 mg/kg p.o., 4 hours post compound administration
# Method: as §1
# Naive male, Sprague Dawley rats were acclimatised with food and water available ad libitum. […] Weight bearing was assessed in all groups 1, 2 and 4 hours post compound administration. Paw volume was assessed 4 hours post compound administration. Data was analysed by comparing treatment groups to control group at each time point.
smiles,measurement,setting,value
"CC(C)[C@H]1c2nc[nH]c2CCN1C(=O)O[C@H]1CCOC1.CS(=O)(=O)O [(3S)-Tetrahydrofuran-3-yl (4S)-4-isopropyl-1,4,6,7-tetrahydro-5H-imidazo[4,5-c]pyridine-5-carboxylate, Methananesulfonic Acid Salt]",reversal of hypersensitivity (weight bearing),"[1]; 150 mg/kg p.o., rat, 1, 2 and 4 hours post dose",no significant reversal of hypersensitivity at any time point
same,reversal of hypersensitivity (weight bearing),"[1]; 250 mg/kg p.o., rat, 4 hours post dose",significant reversal
same,reversal of hypersensitivity (weight bearing),"[1]; 500 mg/kg p.o., rat, 1, 2 and 4 hours post dose",effective at all time points
same,time of maximum effect on hypersensitivity,"[1]; 500 mg/kg p.o., rat, post dose",4 h
same,effect on paw volume,[2],No effect
"CC(C)[C@H]1c2[nH]cnc2CCN1C(=O)O[C@H]1CCOC1 [(3S)-Tetrahydrofuran-3-yl (4S)-4-isopropyl-1,4,6,7-tetrahydro-5H-imidazo[4,5-c]pyridine-5-carboxylate]",efficacy compared with benchmark indomethacin in the CFA thermal hyperalgesia model,"[1]; FIG. 1, summary statement",comparably in efficacy to the gold standard benchmark indomethacin
same,efficacy in the CFA thermal hyperalgesia model (inflammatory pain),"[1]; FIG. 1, summary statement",effective in a dose-dependent manner
